From BindingDB's records for doi:10.7270/Q26W98HW (Burnham Center For Chemical Genomics, 2009)
pIC50: −log10 of the molar value.

Biological target: Eukaryotic translation initiation factor 4H (Homo sapiens, UniProt Q15056)
Assay: eIF4H binding inhibition – biochemical, uHTS, fluorescence polarization, translation initiation inhibitor project, primary screen (AID 2012)

| SMILES | pIC50 |
| --- | --- |
| COc1ccc(CN=Nc2nc(O)c(CC(=O)O)s2)cc1OCc1ccc(Cl)cc1Cl [[2-({3-[(2,4-dichlorobenzyl)oxy]-4-methoxybenzylidene}hydrazono)-4-oxo-1,3-thiazolidin-5-yl]acetic acid] | 4.83 |
| CC1(C)Oc2ccc3ccc(=O)oc3c2C(CN=O)=C1Cl [9-chloro-2-keto-8,8-dimethyl-pyrano[2,3-f]chromene-10-carbaldehyde oxime] | 4.00 |
| CCn1c(=NC(=O)c2ccc(-n3c(O)ccc3O)cc2)sc2c(OC)ccc(OC)c21 [4-[2,5-bis(oxidanylidene)pyrrolidin-1-yl]-N-(3-ethyl-4,7-dimethoxy-1,3-benzothiazol-2-ylidene)benzamide] | 4.83 |
| O=C1N=c2ccccc2=C1NNC(=O)c1cc(-c2cccs2)n[nH]1 [N'-(2-oxoindol-3-yl)-5-thiophen-2-yl-1H-pyrazole-3-carbohydrazide] | 4.94 |
| COc1ccc2c(c1)=C(NNC(=O)Cc1cccs1)C(=O)N=2 | 4.96 |
| CC[N+](C)(CC)CCCC(N=O)C(O)(c1ccccc1)c1ccccc1 (centres undefined) [diethyl-(5-hydroxy-4-hydroxyimino-5,5-diphenylpentyl)-methylammonium;iodide] | 4.00 |
| COc1cc(C)cc(C(=O)O)c1C1C(=O)C(=O)c2c(O)cccc2C1=O (centres undefined) [MLS000877007] | 5.27 |
| O=C(O)c1ccc(N=NCc2cc3c(cc2[N+](=O)[O-])OCO3)cc1 | 4.66 |
| CC1=NC(=O)NC(c2ccco2)C1C(=O)OC(C)C (centres undefined) [SMR000120838] | 4.46 |
